Values of other authors as cited in patent US20100196504A1, “SYNERGISTIC ACTIVE PREPARATIONS COMPRISING 1,2-DECANEDIOL AND FURTHER ANTIMICROBIAL ACTIVE COMPOUNDS” (SYMRISE GmbH & Co. KG, priority 2007, published 2010).

Columns and labels:
[1] = system: Staphylococcus epidermidis; settings: microorganism causing body odour
Propionibacterium acnes = settings: microorganism causing acne
Corynebacterium acnes = settings: microorganism causing body odour

Measured: antimicrobial activity

CCCCCCCCC(O)CO (stereo not drawn) [1,2-decanediol]
antimicrobial activity: all assays above
